Results from patent US7741020B2, “Methods for detecting Lp-PLA2 activity and inhibition of Lp-PLA2 activity” (Glaxo Group Limited, priority 2004, dated 2010).
Several values for one entry are separate records, joined by “and”; a condition that tells them apart may be missing. Equal values may be shown once.

Columns and labels:
[1] = target: T1, Lp-PLA2 (Homo sapiens, UniProt Q13093); experiment: Modified drug-sensitive colorimetric assay, plasma; type: biochemical; conditions: plasma of individual human subjects
T1 sequence (Q13093 22-441): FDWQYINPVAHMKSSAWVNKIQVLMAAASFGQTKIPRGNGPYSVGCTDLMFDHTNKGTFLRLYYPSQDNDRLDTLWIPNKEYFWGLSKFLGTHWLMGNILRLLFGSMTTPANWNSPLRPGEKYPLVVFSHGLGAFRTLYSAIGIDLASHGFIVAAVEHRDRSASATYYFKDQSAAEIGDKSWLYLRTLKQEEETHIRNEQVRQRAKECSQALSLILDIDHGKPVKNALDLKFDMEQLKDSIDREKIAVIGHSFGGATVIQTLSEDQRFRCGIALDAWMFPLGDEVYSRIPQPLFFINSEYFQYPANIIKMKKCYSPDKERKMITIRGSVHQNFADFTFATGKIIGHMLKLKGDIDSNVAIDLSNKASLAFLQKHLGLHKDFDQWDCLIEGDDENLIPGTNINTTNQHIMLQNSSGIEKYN
Text: Assay Procedure • 1. […] Use duplicates for each sample. • 4.
Pre-dose plasma samples for each subject on day 0 of the study were also available.

[2] = target: T1, Lp-PLA2; experiment: Auto PAF AH assay (Azwell kit, Olympus Au640 analyzer); type: biochemical; conditions: 50 mg, plasma of individual human subjects
Protocol: The Auto PAF AH assay kit, manufactured by Azwell (Osaka, Japan), is commercially available in the United States through Karlan Research Products Corporation (Santa Rosa, Calif.).
Prepare the following reagents: • R1: Use this buffer solution as supplied in Azwell Auto PAF AH assay kit. Store at 4° C. Protect from light. • R2: Prepare the R2 working solution by mixing R2A and R2B (supplied in Azwell Auto PAF AH assay kit) in the proportion of 19:1, Store at 4° C. Protect from light. • 3. […] Briefly centrifuge to spin down fibrin clots/particles in the plasma. • 4. Place Sarstedt tubes containing plasma samples onto sample tubes that fit the instrument. Run plasma samples through the Au640 analyzer. After choosing the PAF AH assay program, the analytical procedure described below is performed automatically: • Test sample (2 μL)+R1 (240 μL), 37° C., 5 minutes [0-5 minutes] • Add R2 (80 μL), 37° C., 5 minutes [5-10 minutes] • Measure the absorbance at 410 nm and 480 nm [6-8 minutes] • Calculate PAF AH activity (IU/L) • 5.

## COCCN1CCC(N(Cc2ccc(-c3ccc(C(F)(F)F)cc3)cc2)C(=O)Cn2c(SCc3cccc(F)c3F)cc(=O)c3ccccc32)CC1 [Formula I]
[1]; 50 mg, 0.5 hr after dosing
  % Inhibition Drug-Sensitive Colorimetric: 16.91% and 18.69% and 26.95%
  Lp-PLA2 Activity Drug-Sensitive Colorimetric: 89.99 nmol/min/mL and 69.79 nmol/min/mL and 81.70 nmol/min/mL and 32.96 nmol/min/mL and 141.14 nmol/min/mL
[1]; 50 mg, 1 hr after dosing
  Lp-PLA2 Activity Drug-Sensitive Colorimetric: 17.15 nmol/min/mL and 39.10 nmol/min/mL and 24.96 nmol/min/mL and 22.46 nmol/min/mL and 37.07 nmol/min/mL
[1]; 50 mg, 4 hr after dosing
  % Inhibition Drug-Sensitive Colorimetric: 85.71%
[1]; 50 mg, 5 hr after dosing
  Lp-PLA2 Activity Drug-Sensitive Colorimetric: 20.74 nmol/min/mL and 31.77 nmol/min/mL and 16.58 nmol/min/mL and 15.83 nmol/min/mL and 18.35 nmol/min/mL
[1]; 50 mg, 6 hr after dosing
  Lp-PLA2 Activity Drug-Sensitive Colorimetric: 23.71 nmol/min/mL and 66.08 nmol/min/mL and 21.01 nmol/min/mL and 25.84 nmol/min/mL and 25.12 nmol/min/mL
[1]; 50 mg, 12 hr after dosing
  % Inhibition Drug-Sensitive Colorimetric: 60.73% and 36.04% and 55.61%
  Lp-PLA2 Activity Drug-Sensitive Colorimetric: 34.83 nmol/min/mL and 76.84 nmol/min/mL and 111.00 nmol/min/mL and 53.72 nmol/min/mL and 44.60 nmol/min/mL
[1]; 120 mg, 0.5 hr after dosing
  % Inhibition Drug-Sensitive Colorimetric: 88.89% and 85.22% and 45.29% and 41.39%
  Lp-PLA2 Activity Drug-Sensitive Colorimetric: 31.08 nmol/min/mL and 20.14 nmol/min/mL and 19.87 nmol/min/mL and 63.95 nmol/min/mL and 64.40 nmol/min/mL
[1]; 120 mg, 1 hr after dosing
  % Inhibition Drug-Sensitive Colorimetric: 88.85%
  Lp-PLA2 Activity Drug-Sensitive Colorimetric: 19.69 nmol/min/mL and 23.29 nmol/min/mL and 14.99 nmol/min/mL and 30.22 nmol/min/mL and 18.74 nmol/min/mL
[1]; 120 mg, 2 hr after dosing
  Lp-PLA2 Activity Drug-Sensitive Colorimetric: 19.69 nmol/min/mL and 19.54 nmol/min/mL and 12.22 nmol/min/mL and 29.51 nmol/min/mL and 10.11 nmol/min/mL
[1]; 120 mg, 3 hr after dosing
  Lp-PLA2 Activity Drug-Sensitive Colorimetric: 13.17 nmol/min/mL and 20.61 nmol/min/mL and 15.08 nmol/min/mL and 30.49 nmol/min/mL and 11.51 nmol/min/mL
[1]; 120 mg, 4 hr after dosing
  Lp-PLA2 Activity Drug-Sensitive Colorimetric: 7.30 nmol/min/mL and 21.27 nmol/min/mL and 16.18 nmol/min/mL and 29.42 nmol/min/mL and 11.21 nmol/min/mL
[1]; 120 mg, 5 hr after dosing
  Lp-PLA2 Activity Drug-Sensitive Colorimetric: 22.94 nmol/min/mL and 21.36 nmol/min/mL and 18.14 nmol/min/mL and 35.46 nmol/min/mL and 12.22 nmol/min/mL
[1]; 120 mg, 6 hr after dosing
  Lp-PLA2 Activity Drug-Sensitive Colorimetric: 20.65 nmol/min/mL and 21.39 nmol/min/mL and 18.74 nmol/min/mL and 39.29 nmol/min/mL and 17.01 nmol/min/mL
[1]; 120 mg, 9 hr after dosing
  Lp-PLA2 Activity Drug-Sensitive Colorimetric: 27.16 nmol/min/mL and 27.87 nmol/min/mL and 26.18 nmol/min/mL and 50.81 nmol/min/mL and 21.03 nmol/min/mL
[2]; 0.5 hr after dosing
  % Inhibition Auto PAF AH: 10.84% and 0.65% and −6.65% and 10.66% and 8.03%
  Lp-PLA2 Activity Auto PAF AH: 456.50 nmol/min/mL and 308.00 nmol/min/mL and 393.00 nmol/min/mL and 272.50 nmol/min/mL and 647.00 nmol/min/mL
[2]; 1 hr after dosing
  % Inhibition Auto PAF AH: 11.15% and 14.00% and 19.04%
  Lp-PLA2 Activity Auto PAF AH: 271.00 nmol/min/mL and 605.00 nmol/min/mL and 242.00 nmol/min/mL and 340.50 nmol/min/mL
[2]; 2 hr after dosing
  % Inhibition Auto PAF AH: 10.98% and 20.47% and 9.03%
  Lp-PLA2 Activity Auto PAF AH: 271.50 nmol/min/mL and 559.50 nmol/min/mL and 282.00 nmol/min/mL and 348.00 nmol/min/mL
[2]; 3 hr after dosing
  Lp-PLA2 Activity Auto PAF AH: 277.50 nmol/min/mL and 602.50 nmol/min/mL and 435.00 nmol/min/mL and 287.50 nmol/min/mL and 348.00 nmol/min/mL
[2]; 4 hr after dosing
  % Inhibition Auto PAF AH: 15.90% and 10.52% and 0.32% and 8.14%
  Lp-PLA2 Activity Auto PAF AH: 256.50 nmol/min/mL and 629.50 nmol/min/mL and 409.00 nmol/min/mL and 309.00 nmol/min/mL and 338.50 nmol/min/mL
[2]; 5 hr after dosing
  % Inhibition Auto PAF AH: 10.33% and 7.39% and 24.80% and 9.84% and 8.68%
  Lp-PLA2 Activity Auto PAF AH: 273.50 nmol/min/mL and 651.50 nmol/min/mL and 385.00 nmol/min/mL and 279.50 nmol/min/mL and 336.50 nmol/min/mL
[2]; 6 hr after dosing
  % Inhibition Auto PAF AH: 10.33% and 8.74% and 24.12% and 11.80%
  Lp-PLA2 Activity Auto PAF AH: 273.50 nmol/min/mL and 642.00 nmol/min/mL and 388.50 nmol/min/mL and 306.50 nmol/min/mL and 325.00 nmol/min/mL
[2]; 9 hr after dosing
  % Inhibition Auto PAF AH: 6.23% and 18.76% and 12.99% and 6.61% and 15.33%
